In US12428389B2, “Diarylamide compound and application thereof” (Sunshine Lake Pharma Co., Ltd., priority 2019, dated 2025):
Where two headings read alike, the source gives them in different places.

Assays:
UT-B [1] = molecular target: T1, UT-B (Rattus norvegicus, UniProt P97689); assay: erythrocyte lysis model, rat erythrocytes; type: cell-based, rats
T1 construct: endogenous in cells; host or cells: erythrocytes of SD rats
T1 sequence (P97689 1-384): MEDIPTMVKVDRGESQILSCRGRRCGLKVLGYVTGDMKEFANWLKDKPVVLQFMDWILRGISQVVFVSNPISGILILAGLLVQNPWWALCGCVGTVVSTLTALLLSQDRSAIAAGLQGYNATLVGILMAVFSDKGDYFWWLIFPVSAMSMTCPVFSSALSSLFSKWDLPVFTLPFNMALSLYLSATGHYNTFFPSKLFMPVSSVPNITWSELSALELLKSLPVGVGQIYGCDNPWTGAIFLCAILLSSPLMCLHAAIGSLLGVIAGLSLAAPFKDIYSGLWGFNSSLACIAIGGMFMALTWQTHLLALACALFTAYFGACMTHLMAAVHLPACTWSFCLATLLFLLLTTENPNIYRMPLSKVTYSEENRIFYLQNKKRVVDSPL
Protocol: (§1) Erythrocyte lysis rate was calculated:
(§2) The formula for calculating the lysis rate percentage of erythrocytes, wherein Atest was the absorbance value of the test well, Aneg was the absorbance value of the negative control well, and Apos was the absorbance value of the positive control well. Erythrocyte lysis rate was calculated by measuring absorption at a wavelength of 710 nm.
(§3) The erythrocytes of three species of human, rats (SD rats) and mice (C57 mice) were taken, and urea transporter inhibitors were preliminarily screened from the above screening compound library by using the erythrocyte urea transporter inhibitor screening model.

human UT-B = molecular target: T2, human UT-B (Homo sapiens, UniProt Q13336); assay: erythrocyte lysis model, human erythrocytes; type: cell-based
T2 construct: endogenous in cells; host or cells: human erythrocytes
T2 sequence (Q13336 1-389): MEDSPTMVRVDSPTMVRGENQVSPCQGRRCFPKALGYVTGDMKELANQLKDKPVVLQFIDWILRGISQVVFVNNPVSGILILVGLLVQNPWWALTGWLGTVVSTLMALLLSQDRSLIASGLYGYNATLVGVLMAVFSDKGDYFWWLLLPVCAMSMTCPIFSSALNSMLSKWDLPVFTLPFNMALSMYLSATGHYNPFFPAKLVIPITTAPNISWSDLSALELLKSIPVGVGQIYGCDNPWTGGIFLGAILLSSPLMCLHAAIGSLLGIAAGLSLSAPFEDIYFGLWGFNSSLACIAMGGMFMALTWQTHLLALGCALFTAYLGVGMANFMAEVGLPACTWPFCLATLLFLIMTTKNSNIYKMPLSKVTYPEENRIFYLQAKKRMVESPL
Protocol: as §1, §2, §3

UT-B [2] = molecular target: T3, UT-B (Mus musculus, UniProt Q8VHL0); assay: erythrocyte lysis model, mouse erythrocytes; type: cell-based; settings: concentration when the erythrocyte lysis rate of mice was 50%
T3 construct: endogenous in cells; host or cells: erythrocytes of C57 mice
T3 sequence (Q8VHL0 1-384): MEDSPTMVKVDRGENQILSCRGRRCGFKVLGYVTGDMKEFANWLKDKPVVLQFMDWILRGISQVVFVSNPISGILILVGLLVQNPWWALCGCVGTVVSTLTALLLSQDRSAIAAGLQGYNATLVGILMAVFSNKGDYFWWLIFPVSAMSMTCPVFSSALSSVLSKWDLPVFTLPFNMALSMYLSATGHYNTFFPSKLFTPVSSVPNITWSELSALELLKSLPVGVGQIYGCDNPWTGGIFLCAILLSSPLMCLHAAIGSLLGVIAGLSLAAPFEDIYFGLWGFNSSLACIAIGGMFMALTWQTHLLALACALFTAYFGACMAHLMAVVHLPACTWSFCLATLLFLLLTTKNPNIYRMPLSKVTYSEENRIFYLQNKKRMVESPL
Protocol: as §1, §2, §3

[3] = concentration when the erythrocyte lysis rate of rats was 50%, read-out: IC50 rats
[4] = class of the IC50 to human UT-B, read-out: Activity level
[5] = concentration when the erythrocyte lysis rate of human was 50%, read-out: IC50 human

SMILES | IC50 (UT-B [1]; [3]) [µM] | IC50 (human UT-B; [4]) [µM] | IC50 (human UT-B; [5]) [µM] | IC50 (UT-B [2]) [µM] | IC50 (UT-B [1]) [µM] | IC50 (human UT-B; Activity level, class of the IC50 to human UT-B) [µM] | IC50 (human UT-B; IC50 human, concentration when the erythrocyte lysis rate of human was 50%) [µM]
CC(=O)Nc1ccc(NC(=O)c2ccc([N+](=O)[O-])s2)cc1 [Example 9, N-(4-acetamidophenyl)-5-nitrothiophene-2-carboxamide] | 20.1 | < 10 | 2.53 | 18.7 | – | – | –
O=C(Nc1ccc2ncccc2c1)c1ccc([N+](=O)[O-])o1 [Example 16, N-(quinolin-6-yl)-5-nitrofuran-2-carboxamide] | 5.49 | < 10 | 1.64 | 5.08 | – | – | –
O=C(Nc1ccon1)c1ccc([N+](=O)[O-])o1 [Example 19, N-(isoxazol-3-yl)-5-nitrofuran-2-carboxamide] | 30 | < 10 | 3.63 | 10.2 | – | – | –
O=C(Nc1cc[nH]n1)c1ccc([N+](=O)[O-])o1 [Example 20, N-(1H-pyrazol-5-yl)-5-nitrofuran-2-carboxamide] | 1.36 | < 10 | 0.22 | 1.09 | – | – | –
Cn1ccc(NC(=O)c2ccc([N+](=O)[O-])o2)n1 [Example 21, N-(1-methyl-1H-pyrazol-3-yl)-5-nitrofuran-2-carboxamide] | 1.1 | < 10 | 2.21 | 8.51 | – | – | –
Cn1cc(NC(=O)c2ccc([N+](=O)[O-])o2)cn1 [Example 22, N-(1-methyl-1H-pyrazol-4-yl)-5-nitrofuran-2-carboxamide] | 9.64 | 10 to 20 | 15.8 | 33.2 | – | – | –
Cc1cccc(NC(=O)c2ccc([N+](=O)[O-])o2)c1 [Example 28, N-(3-methylphenyl)-5-nitrofuran-2-carboxamide] | 3.91 | < 10 | 3.66 | 30.5 | – | – | –
COc1ccccc1NC(=O)c1ccc([N+](=O)[O-])o1 [Example 29, N-(2-methoxyphenyl)-5-nitrofuran-2-carboxamide] | 4.11 | < 10 | 4.87 | 17.1 | – | – | –
COc1cccc(NC(=O)c2ccc([N+](=O)[O-])o2)c1 [Example 30, N-(3-methoxyphenyl)-5-nitrofuran-2-carboxamide] | 1.11 | < 10 | 2.27 | 9.65 | – | – | –
O=C(Nc1cccc(O)c1)c1ccc([N+](=O)[O-])o1 [Example 32, N-(3-hydroxyphenyl)-5-nitrofuran-2-carboxamide] | 0.67 | < 10 | 0.91 | 2.39 | – | – | –
Nc1cccc(NC(=O)c2ccc([N+](=O)[O-])o2)c1 [Example 34, N-(3-aminophenyl)-5-nitrofuran-2-carboxamide] | 1.8 | < 10 | 3.58 | 10.5 | – | – | –
O=C(Nc1ccccc1F)c1ccc([N+](=O)[O-])o1 [Example 35, N-(2-fluorophenyl)-5-nitrofuran-2-carboxamide] | 3.8 | < 10 | 3.62 | 43.8 | – | – | –
O=C(Nc1cccc(F)c1)c1ccc([N+](=O)[O-])o1 [Example 36, N-(3-fluorophenyl)-5-nitrofuran-2-carboxamide] | 1.85 | < 10 | 3.09 | 9.28 | – | – | –
O=C(Nc1cccc(Cl)c1)c1ccc([N+](=O)[O-])o1 [Example 38, N-(3-chlorophenyl)-5-nitrofuran-2-carboxamide] | 1.05 | < 10 | 2.91 | 5.81 | – | – | –
N#Cc1cccc(NC(=O)c2ccc([N+](=O)[O-])o2)c1 [Example 40, N-(3-cyanophenyl)-5-nitrofuran-2-carboxamide] | 2.77 | < 10 | 1 | 7.85 | – | – | –
CCOC(=O)c1cccc(NC(=O)c2ccc([N+](=O)[O-])o2)c1 [Example 42, Ethyl 3-(5-nitrofuran-2-carboxamido)benzoate] | 0.45 | < 10 | 0.47 | 2.3 | – | – | –
NC(=O)c1cccc(NC(=O)c2ccc([N+](=O)[O-])o2)c1 [Example 44, N-(3-carbamoylphenyl)-5-nitrofuran-2-carboxamide] | 0.17 | < 10 | 0.42 | 0.5 | – | – | –
CC(=O)c1cccc(NC(=O)c2ccc([N+](=O)[O-])o2)c1 [Example 46, N-(3-acetylphenyl)-5-nitrofuran-2-carboxamide] | 0.49 | < 10 | 1.84 | 2.46 | – | – | –
O=C(Nc1ccc(CCO)cc1)c1ccc([N+](=O)[O-])o1 [Example 50, N-(4-(2-hydroxyethyl)phenyl)-5-nitrofuran-2-carboxamide] | 8.37 | < 10 | 5.3 | 10.2 | – | – | –
NCc1ccc(NC(=O)c2ccc([N+](=O)[O-])o2)cc1 [Example 51, N-(4-aminomethylphenyl)-5-nitrofuran-2-carboxamide] | 0.49 | < 10 | 0.94 | 1.69 | – | – | –
O=C(Nc1ccc(NC(=O)c2ccc([N+](=O)[O-])o2)cc1)c1ccc([N+](=O)[O-])o1 [Example 52, N,N′-(1,4-phenylene)bis(5-nitrofuran-2-carboxamide)] | – | – | – | 0.52 | 0.27 | < 10 | 0.65
CNC(=O)c1cccc(NC(=O)c2ccc([N+](=O)[O-])o2)c1 [Example 53, N-(3-(methylcarbamoyl)phenyl)-5-nitrofuran-2-carboxamide] | 0.015 | < 10 | 0.023 | 0.29 | – | – | –
CN(C)C(=O)c1cccc(NC(=O)c2ccc([N+](=O)[O-])o2)c1 [Example 54, N-(3-(dimethylcarbamoyl)phenyl)-5-nitrofuran-2-carboxamide] | 0.2 | < 10 | 0.74 | 0.31 | – | – | –
CCNC(=O)c1cccc(NC(=O)c2ccc([N+](=O)[O-])o2)c1 [Example 55, N-(3-(ethylcarbamoyl)phenyl)-5-nitrofuran-2-carboxamide] | 1.21 | < 10 | 0.88 | 5.41 | – | – | –
CC(C)NC(=O)c1cccc(NC(=O)c2ccc([N+](=O)[O-])o2)c1 [Example 56, N-(3-(isopropylcarbamoyl)phenyl)-5-nitrofuran-2-carboxamide] | 1.76 | < 10 | 3.94 | 9.7 | – | – | –
CC(C)CNC(=O)c1cccc(NC(=O)c2ccc([N+](=O)[O-])o2)c1 [Example 57, N-(3-(isobutylcarbamoyl)phenyl)-5-nitrofuran-2-carboxamide] | 0.09 | < 10 | 1.42 | 0.5 | – | – | –
O=C(NC1CCCCC1)c1cccc(NC(=O)c2ccc([N+](=O)[O-])o2)c1 [Example 58, N-(3-(cyclohexylcarbamoyl)phenyl)-5-nitrofuran-2-carboxamide] | 0.9 | < 10 | 1.77 | 2.63 | – | – | –
O=C(NCc1ccccc1)c1cccc(NC(=O)c2ccc([N+](=O)[O-])o2)c1 [Example 59, N-(3-(benzylcarbamoyl)phenyl)-5-nitrofuran-2-carboxamide] | 0.26 | < 10 | 0.49 | 1.02 | – | – | –
CCOC(=O)c1c[nH]nc1NC(=O)c1ccc([N+](=O)[O-])o1 [Example 76, ethyl 5-(5-nitrofuran-2-carboxamide)-1H-pyrazole-4-carboxylate] | – | > 80 | > 80 | 15 | – | – | –
